# In US10813914B2, “Composition for controlling microsporidia in fishes and method for controlling microsporidia in fishes using same” (MARUHA NICHIRO CORPORATION, priority 2016, dated 2020):
# Marks after values point to notes of the source that are not given here.
# Experiments:
# [1] = system: microsporidian cyst (beko cyst), beko disease; test: Prevention test using albendazole (1) (1-3); assay type: in vivo, “Mojako” (yellowtail larva); settings: 20 mg/kg Bw oral, 6 times/week
# Experimental: 1-3. Prevention Test Using Albendazole (1)
# (§1) A preliminary test was carried out according to the following procedure:
# (§2) Test number: Live 1000 fishes (each initial body weight: 7 g)
# (§3) Administration method: oral administration (feed together with spreading agent)
# (§4) Drug used: albendazole (compound represented by the above-described formula (3))
# (§5) Administration amount: 20 mg/kg Bw (20 mg per kg of fish body weight)
# (§6) Administration interval: 6 times/week
# A sampling test was carried out according to the following procedure:
# Every two weeks from the start of administration, each 20 fishes of “Mojako” were taken out from each test group (100 fishes of “Mojako” at 8 weeks after the start of administration) and each fish was cut into three pieces. It was then visually tested whether the microsporidian cyst (beko cyst) was found in the pieces. When the beko cyst was observed, it was judged as positive and the test results were accumulated. Regarding the beko cyst that could be confirmed with the naked eye, the number was confirmed and the average infection number per one fish was determined.
# [2] = Weight, deaths and food intake of Mojako in prevention test 1-3; assay type: in vivo, “Mojako” (yellowtail larva); design: Weight of Mojako: unit: g; settings: 20 mg/kg Bw oral, 6 times/week
# Experimental: as §1, §2, §5, §6
# [3] = system: microsporidian cyst (beko cyst), beko disease; test: Prevention test using albendazole (2), reduced dose (1-4); assay type: in vivo, “Mojako” (yellowtail larva); settings: out of 100 fishes at 8 weeks after the start of administration
# Experimental: Albendazole administration and a sampling test were carried out in the same procedure as in the above-described 1-3 except that the administration amount of albendazole was reduced to 5 or 10 mg/kg Bw. In the 10 mg/kg administration group, the number of (positive) individuals showing generation of the beko cyst was 0 out of 100 fishes of “Mojako” at 8 weeks after the start of administration. When the administration amount of albendazole was reduced to 5 mg/kg Bw, generation of the beko cyst was confirmed in 3 out of 100 fishes of “Mojako” at 8 weeks after the start of administration.
# [4] = system: microsporidian cyst (beko cyst), beko disease; test: Prevention test using albendazole (3), 16 weeks administration (1-5); assay type: in vivo, “Mojako” (yellowtail larva); design: Negative: unit not given here
# Experimental: Administration of albendazole was continued for 16 weeks and a sampling test was performed at 2 weeks, 4 weeks, 6 weeks, 8 weeks, 12 weeks and 16 weeks after the start of administration in the same procedure as in the above-described 1-3. The sampling test was carried out in the same procedure also at 4 weeks after the termination of administration of albendazole (20 weeks after the start of administration).
# [5] = system: microsporidian cyst (beko cyst), beko disease; test: Prevention test using albendazole (4), two administration methods (1-6); assay type: in vivo, “Mojako” (yellowtail larva)
# Experimental: A preliminary test was conducted using two administration methods including different administration amounts of albendazole per one operation and different administration intervals. The preliminary test was performed according to the following procedure:
# as §2, §3, §4
# Test group 1: 20 mg/kg Bw (20 mg per kg of fish body weight)
# Test group 2: 40 mg/kg Bw (40 mg per kg of fish body weight)
# Test group 1: 6 times/week (administered for 16 weeks)
# Test group 2: 2 times/2 week (administered for 16 weeks)
# A sampling test was carried out according to the same procedure as in the above-described 1-5.
# [6] = system: microsporidian cyst (beko cyst), beko disease; test: Prevention test using albendazole (5) in Kanpachi (1-7); assay type: in vivo, “Kanpachi” (great amberjack); settings: 40 mg/kg Bw oral, 6 times/week
# Experimental: A prevention test against the beko disease by administering albendazole was carried out using “Kanpachi” instead of “Mojako”.
# A preliminary test was performed according to the following procedure:
# Test number: Live 1000 fishes (each initial body weight: 50 g)
# as §3, §4
# Administration amount: 40 mg/kg Bw (40 mg per kg of fish body weight)
# as §6
# Sampling test procedure: same as in the above-described 1-1
# beko cyst, beko disease = test: Treatment test of Mojako infected with beko disease using albendazole (2-1); assay type: in vivo, “Mojako” (yellowtail larva); settings: 50 mg/kg Bw oral, 6 times/week
# Experimental: 2-1: Test by Treating “Mojako” Infected with Beko Disease Using Albendazole
# A treatment test was carried out according to the following procedure.
# Test number: Live 1000 fishes (test samples showing apparent infection with beko disease according to visual test at the time of vaccine inoculation were selected and tested)
# as §3, §4
# Administration amount: 50 mg/kg Bw (50 mg per kg of fish body weight)
# as §6
# Samples of “Mojako” showing irregularities on the body surface with certainty of beko infection in visual test at the time of vaccine inoculation were selected and divided randomly into the control group and the test group.
# microsporidia = settings: culture test, Non-Patent Documents 3 to 7; cited from earlier work
# [7] = 20 mg/kg Bw oral, 6 times/week, 2 Weeks
# [8] = 20 mg/kg Bw oral, 6 times/week, 4 Weeks
# [9] = 20 mg/kg Bw oral, 6 times/week, 6 Weeks
# [10] = 20 mg/kg Bw oral, 6 times/week, 8 Weeks
# [11] = 20 mg/kg Bw oral, 6 times/week, 12 Weeks
# [12] = 20 mg/kg Bw oral, 6 times/week, 16 Weeks
# [13] = 20 Weeks after start = 4 weeks after termination of 16-week administration
smiles,measurement,setting,value
"CCCSc1ccc2nc(NC(=O)OC)[nH]c2c1 [Albendazole, albendazole]",Positive fishes (beko cyst) / fishes sampled,[1]; 2 week,0/20
same,Positive fishes (beko cyst) / fishes sampled,[1]; 4 Weeks,0/20
same,Positive fishes (beko cyst) / fishes sampled,"[1]; 6 weeks, p < 0.05",0/20*
same,Positive fishes (beko cyst) / fishes sampled,"[1]; 8 weeks, p < 0.01",0/100**
same,Positive fishes (beko cyst) / fishes sampled,"[1]; Total of 2-8 weeks, p < 0.01",0/160**
same,Positive fishes (beko cyst) / fishes sampled,"[1]; Total of 2-8 weeks, p < 0.01, listed as albendazole",no positive was found
same,Increase in the number of deaths and decline in food intake with respect to the control group,[2]; administration period,not recognized
same,Weight of Mojako,[2]; 0 week,7 ± 0.53
same,Weight of Mojako,[2]; 2 Weeks,18 ± 2.38
same,Weight of Mojako,[2]; 4 Weeks,29 ± 4.16
same,Weight of Mojako,[2]; 6 Weeks,51 ± 7.13
same,Body weight compared with the control group,[2]; 8 Weeks,significant increase in body weight
same,Influence on the growth of Mojako,[2]; 8 Weeks,does not exert a harmful influence on the growth
same,Weight of Mojako,[2]; 8 Weeks,73 ± 12.6
same,Number of (positive) individuals showing generation of the beko cyst,[3]; 5 mg/kg Bw oral,3
same,Number of (positive) individuals showing generation of the beko cyst,[3]; 10 mg/kg Bw oral,0
same,Infection rate,[4]; [7],0%
same,Negative,[4]; [7],20
same,Positive,[4]; [7],0
same,Infection rate,[4]; [8],0%
same,Negative,[4]; [8],20
same,Positive,[4]; [8],0
same,Negative,[4]; [9],20
same,Positive,[4]; [9],0
same,Infection rate,"[4]; 20 mg/kg Bw oral, 6 times/week, 6 weeks, p < 0.05",0%*
same,Negative,[4]; [10],100
same,Positive,[4]; [10],0
same,Infection rate,"[4]; 20 mg/kg Bw oral, 6 times/week, 8 weeks, p < 0.01",0%**
same,Negative,[4]; [11],40
same,Positive,[4]; [11],0
same,Infection rate,"[4]; 20 mg/kg Bw oral, 6 times/week, 12 Weeks, p < 0.01",0%**
same,Negative,[4]; [12],46
same,Positive,[4]; [12],0
same,Infection rate,"[4]; 20 mg/kg Bw oral, 6 times/week, 16 Weeks, p < 0.01",0%**
same,Negative,[4]; [13],30
same,Positive,[4]; [13],0
same,Infection rate,"[4]; 20 Weeks after start = 4 weeks after termination of 16-week administration, p < 0.01",0%**
same,Negative,[4]; Total until 16 weeks,246
same,Positive,[4]; Total until 16 weeks,0
same,Infection rate,"[4]; Total until 16 weeks, p < 0.01",0%**
same,Time the effect of preventing infection with microsporidia continues after administration was terminated,"[4]; after 16 weeks of 20 mg/kg Bw oral, 6 times/week",at least 4 weeks
same,Positive fishes (beko cyst) / fishes sampled,"[5]; Test group 1: 20 mg/kg Bw, 6 times/week for 16 weeks, 8 Weeks, p < 0.001",0/50***
same,Positive fishes (beko cyst) / fishes sampled,"[5]; Test group 1: 20 mg/kg Bw, 6 times/week for 16 weeks, 16 Weeks, p < 0.0001",0/70****
same,Positive fishes (beko cyst) / fishes sampled,"[5]; Test group 1: 20 mg/kg Bw, 6 times/week for 16 weeks, 24 Weeks (8 weeks after termination), 20 mg/kg",16/50
same,Positive fishes (beko cyst) / fishes sampled,"[5]; Test group 1: 20 mg/kg Bw, 6 times/week for 16 weeks, 24 Weeks (8 weeks after termination), listed as albendazole, 20 mg/kg",did not continue until 8 weeks after termination of administration
same,Positive fishes (beko cyst) / fishes sampled,"[5]; Test group 1: 20 mg/kg Bw, 6 times/week for 16 weeks, at administration start time",0/20
same,Positive fishes (beko cyst) / fishes sampled,"[5]; Test group 2: 40 mg/kg Bw, 2 times/2 week for 16 weeks, 8 Weeks, p < 0.001",0/50***
same,Positive fishes (beko cyst) / fishes sampled,"[5]; Test group 2: 40 mg/kg Bw, 2 times/2 week for 16 weeks, 16 Weeks, p < 0.0001",0/70****
same,Positive fishes (beko cyst) / fishes sampled,"[5]; Test group 2: 40 mg/kg Bw, 2 times/2 week for 16 weeks, 24 Weeks (8 weeks after termination), p < 0.0001, 40 mg/kg",1/50****
same,Positive fishes (beko cyst) / fishes sampled,"[5]; Test group 2: 40 mg/kg Bw, 2 times/2 week for 16 weeks, 24 Weeks (8 weeks after termination), p < 0.0001, listed as albendazole, 40 mg/kg",significant suppression of generation of the beko cyst
same,Positive fishes (beko cyst) / fishes sampled,"[5]; Test group 2: 40 mg/kg Bw, 2 times/2 week for 16 weeks, at administration start time",0/20
same,Positive fishes (beko cyst) / fishes sampled,"[6]; 8 Weeks, p < 0.01, 40 mg/kg",1/50**
same,Positive fishes (beko cyst) / fishes sampled,"[6]; 8 Weeks, p < 0.01, listed as albendazole, 40 mg/kg",significantly suppressed generation of the beko cyst
same,Positive fishes (beko cyst) / fishes sampled,[6]; at administration start time,1/20
same,Infection rate,"beko cyst, beko disease; 10 Days",60%
same,Number of positive fishes,"beko cyst, beko disease; 10 Days, 10 samples",6
same,Number of positive fishes,"beko cyst, beko disease; 21 Days, 63 samples",28
same,Infection rate,"beko cyst, beko disease; 21 Days, p < 0.01, 50 mg/kg",44.4%**
same,Infection rate,"beko cyst, beko disease; 21 Days, p < 0.01, listed as albendazole, 50 mg/kg",44.4%
same,Infection rate,"beko cyst, beko disease; at administration start time",100%
same,Number of positive fishes,"beko cyst, beko disease; at administration start time, 10 samples",10
same,Antimicrobial activity against microsporidia,microsporidia,high antimicrobial activity
